Test results from US4206221A, “Cephalomannine and its use in treating leukemic tumors” (priority 1979, dated 1980).
≈ marks a conversion by molar mass, not a printed value. Read-outs that look alike come from different tables or passages of the source.

Tests used:
KB cell culture = test: cells; assay type: cell-based; details: for IC50: Homo sapiens, KB, 72 h, read-out: ED 50 (dose that inhibits growth to 50% of control growth); for activity in KB cell culture (in words): assay of extract and of fractions during isolation
Experimental: The chemotherapeutic activities of the fractions obtained in the isolation procedure may be determined by a KB Cell Culture Screen in accordance with the National Cancer Institute Protocol 1.600 [Geran et al., Cancer Chemother. Rep., Part 3, 3: 17 (1972)]. […] Such a dose is referred to as ED 50 and activity is indicated for ED 50 levels of ≤30 μg./ml.

leukemia [1] = test: activity against leukemia in animals (general statement); details: in vivo
[2] = tested on: lymphocytic leukemia cells of the strain P388; test: P388 lymphocytic leukemia implanted in mice, survival time (T/C), National Cancer Institute Protocol 1.200; assay type: in vivo; details: intraperitoneal, once a day for 9 days, female DBA/2 mice, 125% or above considered active
Excerpt: The effectiveness of alkaloid compounds against lymphocytic leukemia cells of the strain P388 implanted in mice is another method of determining activity. These assays are made according to the National Cancer Institute Protocol 1.200 described in Geran et al. referred to above. The usefulness of cephalomannine as compared to taxol was ascertained by assaying Fractions K263 and K264 from Example 1 by this procedure. Starting 24 hr. after the tumor implantation, previously determined dosages of each compound were injected intraperitoneally once a day for 9 days. Survival time of treated leukemic mice is compared to that of untreated leukemic mice (T/C×100). A T/C value of 100% indicated no activity. A T/C value greater than 100% means that the treated mice are surviving longer than the control mice. A compound giving a T/C value greater than 125% is indicative of activity as defined by the NCI Protocols, above.
^1 All mice were female, DBA/2.
^2 The injection vehicle was saline + Tween 80 + alcohol.
^3 One intraperitoneal injection per day for 9 days.
^4 T/C = mean survival time of test animals/mean survival time of […]

leukemia [3] = details: background, literature; cited from earlier work

Row | Structure (SMILES) | IC50 (KB cell culture) [ng/mL] | activity in KB cell culture (in words) (KB cell culture) | activity against leukemia in animals (in words) (leukemia [1]) | T/C (mean survival time of test animals/mean survival time of control animals) ([2]; 1.00 mg./kg./inj.) [%] | T/C (mean survival time of test animals/mean survival time of control animals) ([2]; 1.40 mg./kg./inj.) [%] | T/C (mean survival time of test animals/mean survival time of control animals) ([2]; 2.20 mg./kg./inj.) [%] | T/C (mean survival time of test animals/mean survival time of control animals) ([2]; 3.30 mg./kg./inj.) [%] | IC50 (KB cell culture; 3 days after drug addition, active if ED 50 ≤30 μg./ml.) [ng/mL] | antileukemic / antitumor / chemotherapeutic activity (in words) (leukemia [3])
1 | CC=C(C)C(=O)NC(c1ccccc1)C(O)C(=O)O[C@H]1C[C@@]2(O)[C@@H](OC(=O)c3ccccc3)[C@@H]3[C@]4(OC(C)=O)CO[C@@H]4C[C@H](O)[C@@]3(C)C(=O)[C@H](OC(C)=O)C(=C1C)C2(C)C (single isomer, unassigned) [cephalomannine] | 3.8 (≈ 4.57 nM) | showed activity | demonstrates activity against leukemia in animals | 152 | 159 | 162 | 180 | – | –
2 | CC(=O)O[C@H]1C(=O)[C@@]2(C)[C@H]([C@H](OC(=O)c3ccccc3)[C@]3(O)C[C@H](OC(=O)C(O)C(NC(=O)c4ccccc4)c4ccccc4)C(C)=C1C3(C)C)[C@]1(OC(C)=O)CO[C@@H]1C[C@@H]2O (single isomer, unassigned) [taxol, reference compound] | – | showed activity | – | – | 148 | 152 | – | 1.2 (≈ 1.41 nM) | antileukemic and antitumor agent
